{"source": "paper PMC9150076", "about": "(Journal of Medicinal Chemistry, 2022)", "key": {"human MAGL [1]": {"target": "T1, human MAGL (Homo sapiens, UniProt Q99685)", "T1 sequence (Q99685 1-303)": "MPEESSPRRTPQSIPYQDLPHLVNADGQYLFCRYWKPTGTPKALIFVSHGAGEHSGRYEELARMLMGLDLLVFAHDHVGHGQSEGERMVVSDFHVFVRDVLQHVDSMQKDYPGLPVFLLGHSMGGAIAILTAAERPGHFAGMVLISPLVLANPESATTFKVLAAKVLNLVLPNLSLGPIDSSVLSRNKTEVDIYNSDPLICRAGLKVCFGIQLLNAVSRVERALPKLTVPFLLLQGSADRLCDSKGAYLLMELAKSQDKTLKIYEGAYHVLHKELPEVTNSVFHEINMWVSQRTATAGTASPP", "set-up": "purchased Cayman Chemical; method as in PMID 33045662", "conditions": "reference benzoylpiperidines; read-out: IC50 hMAGL; cited from earlier work"}, "human FAAH": {"target": "T2, human FAAH (Homo sapiens, UniProt O00519)", "T2 sequence (O00519 1-579)": "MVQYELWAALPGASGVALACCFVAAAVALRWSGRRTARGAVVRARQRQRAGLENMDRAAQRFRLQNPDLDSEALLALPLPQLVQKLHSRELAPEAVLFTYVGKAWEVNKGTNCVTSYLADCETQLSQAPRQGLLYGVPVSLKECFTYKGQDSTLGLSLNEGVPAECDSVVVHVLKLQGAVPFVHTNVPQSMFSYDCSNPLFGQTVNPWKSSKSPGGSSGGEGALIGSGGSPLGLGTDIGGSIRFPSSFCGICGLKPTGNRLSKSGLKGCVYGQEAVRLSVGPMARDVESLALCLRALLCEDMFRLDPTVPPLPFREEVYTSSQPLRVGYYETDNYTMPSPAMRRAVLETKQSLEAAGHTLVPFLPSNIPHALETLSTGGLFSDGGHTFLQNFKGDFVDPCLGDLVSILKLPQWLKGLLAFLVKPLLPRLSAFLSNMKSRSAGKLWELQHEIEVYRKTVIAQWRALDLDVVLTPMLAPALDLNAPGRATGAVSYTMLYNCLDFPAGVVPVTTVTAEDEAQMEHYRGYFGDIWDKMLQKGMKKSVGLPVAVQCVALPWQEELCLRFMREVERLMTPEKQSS", "set-up": "purchased Cayman Chemical; method as in PMID 33045662", "conditions": "reference benzoylpiperidines; read-out: IC50 hFAAH; cited from earlier work"}, "Water solubility": {"test": "Water solubility", "assay_type": "physicochemical", "conditions": "distilled water, room temperature", "protocol": "6.9 software. Chromatographic separation was obtained using a Kinetex C18 column (150 × 4.6 mm) with a 5 μm particle size and gradient elution with a binary solution; (eluent A: ACN, eluent B: water, both eluents were acidified with formic acid 0.1% v/v). The analysis started with 5% of A (from t = 0 to t = 1 min), then A was increased to 95% (from t = 1 to t = 10 min), then kept at 95% (from t = 10 to t = 19 min), and finally returned to 5% of eluent A in 1.0 min. The flow rate was 0.6 mL/min, and injection volumes were 10 μL. The instrument operated in positive mode, and parameters were detector 1450 V, drying gas pressure 35.0 psi, desolvation temperature 300.0 °C, nebulizing gas 45.0 psi, needle 5550 V and shield 350 V. Nitrogen was used as a nebulizer gas and drying gas. Collision-induced dissociation was performed using argon as the collision gas at a pressure of 1.8 mTorr in the collision cell. The transitions as well as the capillary voltage and the collision energy used are appropriated for each tested compound. Quantification of the single compound was made by comparison with appropriate calibration curves realized with standard solutions in methanol. LC analyses of PAMPA, metabolic stability, and stability tests (in MeOH, PBS, human plasma) were performed by UV/LC–MS with an Agilent 1100 LC/MSD VL system ((G1946C) Agilent Technologies, Palo Alto, CA) using a Phenomenex Kinetex C18–100 Å (150 × 4.6 mm, 5 μm particle size) at room temperature. Analyses were carried out with the same chromatographic conditions reported above.\nEach sample was mixed at room temperature in a shaker water bath for 24 h.[62] The resulting suspension was filtered through a 0.45 μm nylon filter (Acrodisc), and the solubilized compound was quantified in triplicate using the LC–MS/MS method reported above, by comparison with the appropriate calibration curve that was obtained from samples of the compound dissolved in methanol at different concentrations."}, "[2]": {"test": "Metabolic stability in human liver microsomes", "assay_type": "in vitro ADME", "conditions": "37 °C, 1 h, percentage of unmodified compound", "protocol": "The reaction was cooled down in ice and quenched by adding acetonitrile (1.0 mL). After centrifugation (4000 rpm for 10 min), the supernatant was taken, dried under nitrogen flow, and suspended in 100 μL of methanol and the parent drug and metabolites were subsequently determined by UV/LC–MS. The percentage of nonmetabolized compounds was calculated by comparison with reference solutions. For each compound, the determination was performed in three independent experiments."}, "[3]": {"test": "Stability test in polar solvents", "assay_type": "physicochemical", "protocol": "Each compound was dissolved at RT in MeOH or PBS (25 mM, pH 7.4) up to a final concentration of 500 μM. Aliquot samples (20 μL) were taken at fixed time points (0.0, 4.0, 8.0, and 24.0 h) and were analyzed by UV/LC–MS. For each compound, the determination was performed in three independent experiments."}, "[4]": {"test": "Stability test in human plasma", "assay_type": "in vitro ADME", "conditions": "37 °C", "protocol": "The incubation mixture (total volume of […]) was constituted by the following components: pooled human plasma (1.5 mL, 55.7 mg protein/mL),[65] HEPES buffer (1.4 mL, 25 mM, 140 mM NaCl pH 7.4), and 100 μL of each compound in DMSO (3.0 mM). The solution was mixed in a test tube that was incubated at 37 °C. At set time points (0.0, 0.25, 0.50, 1.0, 2.0, 4.0, 8.0, and 24.0 h), samples of 100 μL were taken, mixed with 400 μL of cold acetonitrile, and centrifuged at 5000 rpm for 15 min.[66] The supernatant was removed and analyzed by UV/LC–MS. For each compound, the determination was performed in three independent experiments."}, "[5]": {"test_system": "active caspase-3 in PDAC3 cells", "test": "Active caspase-3 immunoassay, PDAC3", "assay_type": "cell-based, human", "conditions": "PDAC3, compared to untreated cells"}, "[6]": {"test_system": "PDAC3 primary cell culture", "test": "Growth inhibition, SRB assay, PDAC3", "assay_type": "cell-based, human", "conditions": "PDAC3, SRB"}, "PDAC3 cells": {"test_system": "PDAC3 cells", "test": "Wound-healing/migration assay, PDAC3", "assay_type": "cell-based, human", "conditions": "PDAC3, 20 h, drug at 5× IC50; control 59 ± 8%"}, "human MAGL [7]": {"target": "T1, human MAGL"}, "MAGL": {"target": "MAGL (Mus musculus, UniProt O35678)", "sequence (O35678 whole entry)": "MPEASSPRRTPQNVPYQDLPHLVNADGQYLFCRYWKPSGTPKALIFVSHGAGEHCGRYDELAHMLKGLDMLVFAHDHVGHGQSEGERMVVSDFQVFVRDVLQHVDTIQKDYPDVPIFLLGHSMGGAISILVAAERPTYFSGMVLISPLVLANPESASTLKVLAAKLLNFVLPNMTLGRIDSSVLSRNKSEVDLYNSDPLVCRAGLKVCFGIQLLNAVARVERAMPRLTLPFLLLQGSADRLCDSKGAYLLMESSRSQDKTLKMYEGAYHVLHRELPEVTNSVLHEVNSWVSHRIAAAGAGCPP"}, "PDAC2 cells": {"test_system": "PDAC2 cells", "conditions": "PDAC2, single agent"}, "[8]": {"test_system": "active caspase-3 in PDAC2 cells", "test": "Active caspase-3 immunoassay, PDAC2", "assay_type": "cell-based, human", "conditions": "untreated 0.35"}}, "note": "Read-outs that look alike come from different tables or passages of the source."}
{"smiles": "O=C(c1ccc(Sc2ccccc2)cc1)C1CCN(C(=O)c2cc(O)ccc2F)CC1", "note": "[Compound 5b]", "values": [{"measurement": "IC50", "setting": "human MAGL [1]", "value": "30.5 ± 1.8", "unit": "nM"}, {"measurement": "IC50", "setting": "human FAAH", "value": "> 10000", "unit": "nM"}]}
{"smiles": "O=C(c1ccc(Sc2cccc(C(F)(F)F)c2)cc1)C1CCN(C(=O)c2cc(O)ccc2F)CC1", "note": "[Compound 5c, reference compound]", "values": [{"measurement": "solubility at 24 h", "setting": "Water solubility; read-out: water solubility", "value": "< 1", "unit": "ng/mL"}, {"measurement": "solubility at 24 h", "setting": "Water solubility; read-out: water solubility (logS)", "value": "< 1.99", "unit": "nM"}, {"measurement": "metabolic stability", "setting": "[2]", "value": 90.5, "unit": "%"}, {"measurement": "stability MeOH", "setting": "[3]; MeOH, RT", "value": ">24", "unit": "h"}, {"measurement": "stability PBS pH 7.4", "setting": "[3]; PBS pH 7.4, RT", "value": ">24", "unit": "h"}, {"measurement": "stability human plasma", "setting": "[4]", "value": ">24", "unit": "h"}]}
{"smiles": "O=C(Oc1ccc([N+](=O)[O-])cc1)N1CCC(C(O)(c2ccc3c(c2)OCO3)c2ccc3c(c2)OCO3)CC1", "note": "[JZL-184]", "values": [{"measurement": "levels of active caspase-3", "setting": "[5]", "value": "similarly effective in stimulating caspase-3"}, {"measurement": "PDAC3 cell growth inhibitory effect (cell growth curves)", "setting": "[6]", "value": "effective in reducing PDAC3 proliferation"}, {"measurement": "scratch area closed", "setting": "PDAC3 cells", "value": "43 ± 8", "unit": "%"}, {"measurement": "mechanism of inhibition (pre-incubation and dilution assays)", "setting": "human MAGL [7]", "value": "irreversible mechanism of action"}, {"measurement": "TAMRA-FP labelling of MAGL bands (ABPP)", "setting": "MAGL", "value": "can fully compete with the probe"}]}
{"smiles": "Nc1ccn([C@@H]2O[C@H](CO)[C@@H](O)C2(F)F)c(=O)n1", "note": "[gemcitabine]", "values": [{"measurement": "apoptosis fold induction/change", "setting": "PDAC2 cells", "value": "~5", "unit": "fold"}, {"measurement": "levels of active caspase-3", "setting": "[5]", "value": "significantly higher levels of active caspase-3"}, {"measurement": "levels of active caspase-3", "setting": "[8]", "value": 0.88, "unit": "ng/mL"}]}
